Assays:
Format in all cases: in vivo
[1] = system: Alopecurus myosuroides; assay: Test Example 5: herbicidal effect by foliage application, plastic box (symbol J); details: 320 g/ha, 3 weeks after application
Outline: (§1)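 After sowing into sterilized diluvial soil and growing two weeks under glass at 25° C. to 30° C., seedlings receive a uniform foliar spray of diluted emulsion. Damage is judged visually three weeks on.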

[2] = system: beet; assay: Test Example 5: effect on crop by foliage application, plastic box (symbol f); details: 320 g/ha, 3 weeks after application
Outline: (§2)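 A greenhouse held between 25° C. and 30° C. was used to grow plants sown spot-wise, beneath ~1.5 cm of soil, in boxes of sterilized diluvial soil.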

[3] = system: Echinochloa crus-galli var. crus-galli; assay: Test Example 4: herbicidal effect by soil treatment (symbol H); details: application herbicide amount 320 g/ha
Outline: (§3)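 Seeds were sown in sterilized diluvial soil, covered with about 1.5 cm of soil, and the soil surface was sprayed with a water-diluted emulsion of the compound at a predetermined rate. Plants grew in a greenhouse at 25° C. to 30° C.; effects were scored visually 3 weeks after application.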

[4] = system: Echinochloa crus-galli var. crus-galli; assay: Test Example 5: herbicidal effect by foliage application, plastic box (symbol H); details: 320 g/ha, 3 weeks after application
Outline: as §1

[5] = system: Abutilon theophrasti; assay: Test Example 4: herbicidal effect by soil treatment (symbol M); details: application herbicide amount 320 g/ha
Outline: as §3

[6] = system: corn; assay: Test Example 5: effect on crop by foliage application, plastic box (symbol c); details: 320 g/ha, 3 weeks after application
Outline: as §2

[7] = system: transplanted rice plant; assay: Test Example 1: effect on crop, application before weed generation in submerged conditions (symbol a); details: application herbicide amount 320 g/ha
Outline: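 Alluvial soil pots flooded to 4 cm water, sown with Echinochloa oryzacola, Scirpus juncoides and Monochoria vaginalis, then transplanted with 2.5 leaf stage rice seedlings; pre-emergence application. Greenhouse 25° C. to 30° C.; scored 0–5 by herbicidal ratio 3 weeks after application.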

[8] = system: Apera spica-venti; assay: Test Example 4: herbicidal effect by soil treatment (symbol L); details: application herbicide amount 320 g/ha
Outline: as §3

[9] = system: Scirpus juncoides; assay: Test Example 2: herbicidal activity, application during weed generation in submerged conditions (symbol B); details: Table 23; application herbicide amount 320 g/ha; grade 0-5 by criteria of Test Example 1
Outline: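 Each pot contained alluvial soil under 4 cm of water with seeds of all three weeds sown together. Following growth at 25° C. to 30° C. to the one- to two-leaf stage, the floodwater received diluted emulsion at a predetermined amount; visual assessment followed at 3 weeks.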

[10] = system: soybean; assay: Test Example 5: effect on crop by foliage application, plastic box (symbol d); details: 320 g/ha, 3 weeks after application
Outline: as §2

[11] = system: Cyperus difformis; assay: Test Example 3: herbicidal effect by foliage application, Wagner pot (symbol E); details: application herbicide amount 320 g/ha
Outline: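 Seeds sown in alluvial soil kept under 0.1–0.5 cm water, greenhouse 25–30 °C; 14 d growth. Leaves treated by small sprayer with water-diluted emulsion at a predetermined rate. Effect graded by set scale, 3 weeks.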

[12] = system: corn; assay: Test Example 4: effect on crop by soil treatment (symbol c); details: application herbicide amount 320 g/ha
Outline: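 Steps: fill box with sterilized diluvial soil; sow seed spot-like; cover with ~1.5 cm soil; grow in greenhouse (25° C. to 30° C.).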

[13] = system: rice; assay: Test Example 4: effect on crop by soil treatment (symbol b); details: application herbicide amount 320 g/ha
Outline: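 Seeds were sown in spots on sterilized diluvial soil in a plastic box and covered with about 1.5 cm of soil. Plants were then grown in a greenhouse at 25° C. to 30° C.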

SMILES	J: Alopecurus myosuroides, herbicidal effect grade [1]	f: beet, effect on crop grade [2]	H (Echinochloa crus-galli var. crus-galli) herbicidal effect grade [3]	H: Echinochloa crus-galli var. crus-galli, herbicidal effect grade [4]	M (Abutilon theophrasti) herbicidal effect grade [5]	c: corn, effect on crop grade [6]	Effect grade on crop, a: transplanted rice plant [7]	L (Apera spica-venti) herbicidal effect grade [8]	Herbicidal effect grade, B: Scirpus juncoides [9]	d: soybean, effect on crop grade [10]	herbicidal effect on E, grade 0-5 [11]	c (corn) effect on crop grade [12]	b (directly sowed rice plant) effect on crop grade [13]	H: Echinochloa crus-galli var. crus-galli, herbicidal effect grade [3]	M: Abutilon theophrasti, herbicidal effect grade [5]	L: Apera spica-venti, herbicidal effect grade [8]	c: corn, effect on crop grade [12]	b: directly sowed rice plant, effect on crop grade [13]
CON=C(C)CC1CC(OCC(=O)OC)=C(c2c(C)cc(C)cc2C)C1=O (stereo not drawn) [1-012]	0 (Herbicidal ratio of 5% or lower (almost no effect))	0 (Herbicidal ratio of 5% or lower (almost no effect))	0 (Herbicidal ratio of 5% or lower (almost no effect))	0 (Herbicidal ratio of 5% or lower (almost no effect))	0 (Herbicidal ratio of 5% or lower (almost no effect))	0 (Herbicidal ratio of 5% or lower (almost no effect))	0 (Herbicidal ratio of 5% or lower (almost no effect))	0 (Herbicidal ratio of 5% or lower (almost no effect))	0 (Herbicidal ratio of 5% or lower (almost no effect))	0 (Herbicidal ratio of 5% or lower (almost no effect))	0 (Herbicidal ratio of 5% or lower (almost no effect))	0 (Herbicidal ratio of 5% or lower (almost no effect))	0 (Herbicidal ratio of 5% or lower (almost no effect))	–	–	–	–	–
Cc1cc(C)c(C2=C(O)CC(CC(=O)C(C)C)C2=O)c(C)c1 (stereo not drawn) [2-016]	5 (Herbicidal ratio of 90% or more (almost completely withered))	0 (Herbicidal ratio of 5% or lower (almost no effect))	–	5 (Herbicidal ratio of 90% or more (almost completely withered))	–	4 (Herbicidal ratio of 70% or higher and lower than 90%)	4 (Herbicidal ratio of 70% or higher and lower than 90%)	–	0 (Herbicidal ratio of 5% or lower (almost no effect))	3 (Herbicidal ratio of 40% or higher and lower than 70%)	4 (Herbicidal ratio of 70% or higher and lower than 90%)	–	–	5 (Herbicidal ratio of 90% or more (almost completely withered))	0 (Herbicidal ratio of 5% or lower (almost no effect))	2 (Herbicidal ratio of 20% or higher and lower than 40%)	3 (Herbicidal ratio of 40% or higher and lower than 70%)	5 (Herbicidal ratio of 90% or more (almost completely withered))
CON=C(C)CC1CC(OC(=O)OC)=C(c2c(C)cc(C)cc2C)C1=O (stereo not drawn) [1-014]	5 (Herbicidal ratio of 90% or more (almost completely withered))	3 (Herbicidal ratio of 40% or higher and lower than 70%)	5 (Herbicidal ratio of 90% or more (almost completely withered))	5 (Herbicidal ratio of 90% or more (almost completely withered))	4 (Herbicidal ratio of 70% or higher and lower than 90%)	5 (Herbicidal ratio of 90% or more (almost completely withered))	5 (Herbicidal ratio of 90% or more (almost completely withered))	5 (Herbicidal ratio of 90% or more (almost completely withered))	3 (Herbicidal ratio of 40% or higher and lower than 70%)	5 (Herbicidal ratio of 90% or more (almost completely withered))	5 (Herbicidal ratio of 90% or more (almost completely withered))	4 (Herbicidal ratio of 70% or higher and lower than 90%)	4 (Herbicidal ratio of 70% or higher and lower than 90%)	–	–	–	–	–

Reference: patent publication US11000033B2, “Ketone or oxime compound, and herbicide” (NISSAN CHEMICAL CORPORATION, priority 2014, dated 2021)
